Assays:
PIK3CG = PIK3CG (UniProt P48736); assay: Inhibition of PIK3CG Kinase Activity
PIK3CD (Human) = PIK3CD (Human) (UniProt O00329); assay: Inhibition of PIK3CD Kinase Activity
PIK3CA (human) = PIK3CA (human) (UniProt P42336); assay: Inhibition of PIK3CA Kinase Activity
CDK2 = CDK2 (UniProt P24941)
EGFR = EGFR (UniProt P00533)
MAPK14 = MAPK14 (UniProt Q16539)
PIK3CB (Human) [1] = molecular target: PIK3CB (Human) (UniProt P42338); assay: Assessment of Neutrophil ROS Response in Human Whole Blood; conditions: neutrophils
Chain of PIK3CB (Human) (P42338 whole entry, looked up): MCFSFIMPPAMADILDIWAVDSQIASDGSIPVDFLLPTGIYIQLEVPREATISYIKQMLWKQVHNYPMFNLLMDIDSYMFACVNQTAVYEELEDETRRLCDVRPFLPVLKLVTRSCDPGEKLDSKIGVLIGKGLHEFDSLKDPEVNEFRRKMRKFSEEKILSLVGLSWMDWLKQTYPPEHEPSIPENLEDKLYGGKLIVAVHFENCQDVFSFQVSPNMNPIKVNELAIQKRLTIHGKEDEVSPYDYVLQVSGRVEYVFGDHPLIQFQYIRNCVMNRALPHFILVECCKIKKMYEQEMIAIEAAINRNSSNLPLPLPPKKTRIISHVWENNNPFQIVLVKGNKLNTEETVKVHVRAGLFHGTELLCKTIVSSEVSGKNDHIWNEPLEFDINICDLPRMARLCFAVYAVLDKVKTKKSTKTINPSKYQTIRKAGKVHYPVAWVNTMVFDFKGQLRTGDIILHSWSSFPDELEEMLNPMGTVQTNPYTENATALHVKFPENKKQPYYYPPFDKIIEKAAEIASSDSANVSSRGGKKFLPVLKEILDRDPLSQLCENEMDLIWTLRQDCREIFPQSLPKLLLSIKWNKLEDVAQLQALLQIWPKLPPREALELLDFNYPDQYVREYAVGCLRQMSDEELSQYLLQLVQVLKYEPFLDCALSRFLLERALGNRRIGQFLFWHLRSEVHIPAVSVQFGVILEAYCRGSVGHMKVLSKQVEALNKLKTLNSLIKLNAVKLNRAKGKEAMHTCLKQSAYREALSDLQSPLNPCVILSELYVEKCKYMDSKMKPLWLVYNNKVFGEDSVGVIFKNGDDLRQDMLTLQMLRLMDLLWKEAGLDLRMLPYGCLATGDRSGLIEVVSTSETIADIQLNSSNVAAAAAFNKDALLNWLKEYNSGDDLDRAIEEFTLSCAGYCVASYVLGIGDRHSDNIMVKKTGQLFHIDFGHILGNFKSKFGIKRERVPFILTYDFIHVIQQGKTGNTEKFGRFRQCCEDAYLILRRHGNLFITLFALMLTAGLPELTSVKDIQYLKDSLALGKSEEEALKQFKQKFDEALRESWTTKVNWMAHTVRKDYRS

PIK3CB (Human) [2] = molecular target: PIK3CB (Human) (UniProt P42338); assay: Inhibition of U937 Cell Proliferation
PIK3CB (Human) [3] = molecular target: PIK3CB (Human) (UniProt P42338); assay: Inhibition of Platelet Thrombus Formation under Flow
PIK3CB (Human) [4] = molecular target: PIK3CB (Human) (UniProt P42338); assay: Inhibition of CD9 Antibody Induced Platelet Aggregation

Chain of PIK3CG (P48736 whole entry, looked up): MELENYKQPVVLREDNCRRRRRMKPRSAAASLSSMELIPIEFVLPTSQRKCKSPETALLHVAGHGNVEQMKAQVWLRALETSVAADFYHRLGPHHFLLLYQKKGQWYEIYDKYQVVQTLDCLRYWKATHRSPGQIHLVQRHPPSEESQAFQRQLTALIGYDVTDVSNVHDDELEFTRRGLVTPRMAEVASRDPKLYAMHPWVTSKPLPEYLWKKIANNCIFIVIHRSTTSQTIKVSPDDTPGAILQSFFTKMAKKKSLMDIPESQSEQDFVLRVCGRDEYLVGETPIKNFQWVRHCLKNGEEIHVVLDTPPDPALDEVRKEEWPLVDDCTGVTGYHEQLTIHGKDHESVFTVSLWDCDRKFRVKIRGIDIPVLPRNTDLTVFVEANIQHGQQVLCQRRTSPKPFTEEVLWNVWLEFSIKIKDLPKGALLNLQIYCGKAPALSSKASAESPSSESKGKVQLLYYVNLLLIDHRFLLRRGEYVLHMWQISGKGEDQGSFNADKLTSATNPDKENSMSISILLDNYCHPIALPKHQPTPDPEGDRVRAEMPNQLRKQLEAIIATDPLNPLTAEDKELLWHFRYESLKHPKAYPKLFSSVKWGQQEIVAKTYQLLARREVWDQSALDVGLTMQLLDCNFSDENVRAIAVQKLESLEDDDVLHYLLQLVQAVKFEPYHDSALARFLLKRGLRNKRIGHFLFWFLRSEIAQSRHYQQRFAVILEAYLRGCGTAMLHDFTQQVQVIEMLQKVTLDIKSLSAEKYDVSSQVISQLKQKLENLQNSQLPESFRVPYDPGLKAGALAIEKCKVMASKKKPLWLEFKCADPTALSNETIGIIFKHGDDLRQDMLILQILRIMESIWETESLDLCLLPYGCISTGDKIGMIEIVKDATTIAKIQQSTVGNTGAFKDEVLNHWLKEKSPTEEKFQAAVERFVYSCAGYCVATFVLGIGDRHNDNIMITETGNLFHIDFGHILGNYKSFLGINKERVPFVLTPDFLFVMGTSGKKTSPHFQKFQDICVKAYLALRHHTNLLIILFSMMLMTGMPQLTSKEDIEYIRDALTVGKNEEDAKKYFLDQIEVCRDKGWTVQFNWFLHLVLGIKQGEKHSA
Chain of PIK3CA (human) (P42336 whole entry, looked up): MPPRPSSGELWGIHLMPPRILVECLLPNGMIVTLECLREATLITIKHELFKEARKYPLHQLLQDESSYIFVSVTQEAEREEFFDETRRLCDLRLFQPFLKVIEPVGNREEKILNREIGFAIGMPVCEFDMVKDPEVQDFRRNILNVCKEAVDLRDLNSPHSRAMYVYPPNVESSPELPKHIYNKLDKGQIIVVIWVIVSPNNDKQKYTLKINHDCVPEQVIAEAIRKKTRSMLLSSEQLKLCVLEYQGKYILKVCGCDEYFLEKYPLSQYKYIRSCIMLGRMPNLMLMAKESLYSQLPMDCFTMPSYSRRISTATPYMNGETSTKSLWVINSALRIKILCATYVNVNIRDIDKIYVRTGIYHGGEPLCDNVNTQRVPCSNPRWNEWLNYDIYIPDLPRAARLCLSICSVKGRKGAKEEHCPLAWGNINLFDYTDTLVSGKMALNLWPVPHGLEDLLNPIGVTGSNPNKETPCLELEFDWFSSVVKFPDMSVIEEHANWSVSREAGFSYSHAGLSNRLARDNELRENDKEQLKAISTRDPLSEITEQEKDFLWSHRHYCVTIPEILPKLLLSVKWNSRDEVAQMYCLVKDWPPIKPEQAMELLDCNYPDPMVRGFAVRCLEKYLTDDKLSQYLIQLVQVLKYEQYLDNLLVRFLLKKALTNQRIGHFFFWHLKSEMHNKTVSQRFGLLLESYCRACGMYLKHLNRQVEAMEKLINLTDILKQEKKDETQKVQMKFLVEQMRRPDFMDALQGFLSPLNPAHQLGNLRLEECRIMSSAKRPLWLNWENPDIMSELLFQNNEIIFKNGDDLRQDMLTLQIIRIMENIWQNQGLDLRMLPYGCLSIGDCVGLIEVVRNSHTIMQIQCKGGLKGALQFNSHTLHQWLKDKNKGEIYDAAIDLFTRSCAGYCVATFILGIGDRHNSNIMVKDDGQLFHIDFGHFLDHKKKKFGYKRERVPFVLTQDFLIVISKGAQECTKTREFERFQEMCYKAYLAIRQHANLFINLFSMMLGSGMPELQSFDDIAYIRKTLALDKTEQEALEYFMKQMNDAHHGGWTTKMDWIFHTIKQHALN
Chain of PIK3CD (Human) (O00329 whole entry, looked up): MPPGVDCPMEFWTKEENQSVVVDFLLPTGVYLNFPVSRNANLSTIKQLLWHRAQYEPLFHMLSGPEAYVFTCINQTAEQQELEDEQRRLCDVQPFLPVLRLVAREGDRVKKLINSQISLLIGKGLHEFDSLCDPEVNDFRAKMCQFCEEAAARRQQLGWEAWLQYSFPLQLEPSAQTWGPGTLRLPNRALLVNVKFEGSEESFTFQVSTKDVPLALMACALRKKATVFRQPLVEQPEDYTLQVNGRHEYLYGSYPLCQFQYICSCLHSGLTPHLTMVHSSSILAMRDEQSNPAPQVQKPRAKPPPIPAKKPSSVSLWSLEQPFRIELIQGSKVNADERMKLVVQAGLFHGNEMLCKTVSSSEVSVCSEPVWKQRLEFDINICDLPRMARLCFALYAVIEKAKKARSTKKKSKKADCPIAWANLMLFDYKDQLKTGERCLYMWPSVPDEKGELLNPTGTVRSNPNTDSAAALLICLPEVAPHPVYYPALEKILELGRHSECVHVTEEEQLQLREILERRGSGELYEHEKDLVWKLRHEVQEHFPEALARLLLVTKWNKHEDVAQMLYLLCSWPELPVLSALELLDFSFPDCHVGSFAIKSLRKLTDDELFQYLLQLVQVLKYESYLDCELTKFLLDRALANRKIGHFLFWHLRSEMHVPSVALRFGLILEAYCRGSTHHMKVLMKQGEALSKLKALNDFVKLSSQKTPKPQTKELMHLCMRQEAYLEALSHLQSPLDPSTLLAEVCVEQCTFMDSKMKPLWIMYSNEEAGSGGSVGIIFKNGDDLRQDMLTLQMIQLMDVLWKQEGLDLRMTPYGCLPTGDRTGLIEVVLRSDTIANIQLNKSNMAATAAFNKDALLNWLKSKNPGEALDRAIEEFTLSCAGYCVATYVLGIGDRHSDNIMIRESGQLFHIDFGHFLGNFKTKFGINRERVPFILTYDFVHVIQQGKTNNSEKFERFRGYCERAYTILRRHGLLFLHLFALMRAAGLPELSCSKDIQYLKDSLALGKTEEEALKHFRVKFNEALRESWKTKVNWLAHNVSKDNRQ
Chain of MAPK14 (Q16539 whole entry, looked up): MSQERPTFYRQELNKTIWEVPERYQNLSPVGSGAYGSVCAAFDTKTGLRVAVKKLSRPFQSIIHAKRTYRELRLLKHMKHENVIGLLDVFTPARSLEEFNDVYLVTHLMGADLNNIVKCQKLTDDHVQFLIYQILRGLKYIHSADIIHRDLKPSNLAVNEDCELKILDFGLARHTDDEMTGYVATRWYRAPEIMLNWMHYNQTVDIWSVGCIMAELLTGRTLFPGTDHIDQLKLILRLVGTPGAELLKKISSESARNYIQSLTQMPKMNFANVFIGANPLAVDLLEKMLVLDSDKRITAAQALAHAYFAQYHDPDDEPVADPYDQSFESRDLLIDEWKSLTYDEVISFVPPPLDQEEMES

| Structure (SMILES) | IC50 (PIK3CG) | IC50 (PIK3CD (Human)) | IC50 (PIK3CA (human)) | other results |
| --- | --- | --- | --- | --- |
| Cc1cc(C(C)n2c(C(F)(F)F)nc3ccccc32)c2oc(-c3ccncc3)cc(=O)c2c1 (stereo not drawn) | 10 µM | 10 µM |  |  |
| Cc1cc(CN(C)c2ccccc2)c2nc(N3CCOCC3)cc(=O)n2c1 |  |  | > 5 µM |  |
| O=c1cc(-c2ccncc2)oc2c(OCc3ccccc3)cccc12 | 10 µM |  |  |  |
| Cc1cc(C(C)Nc2cccc(C(F)(F)F)c2)c2oc(-c3ccncc3)cc(=O)c2c1 (stereo not drawn) | 10 µM |  |  |  |
| Cc1cc(C(C)Nc2ccccc2)c2nc(N3CCOCC3)cc(=O)n2c1 (stereo not drawn) |  |  | > 5 µM | IC50 (CDK2): > 10 µM; IC50 (EGFR): > 10 µM; IC50 (MAPK14): > 10 µM |
| Cc1cc(C(C)Nc2cccc(Cl)c2)c2nc(N3CCOCC3)cc(=O)n2c1 (stereo not drawn) |  |  | > 5 µM |  |
| Cc1cc(COc2ccccc2)c2oc(-c3ccncc3)cc(=O)c2c1 | 10 µM |  |  |  |
| O=c1cc(-c2ccncc2)[nH]c2c(-c3ccccc3)cccc12 |  | 10 µM |  |  |
| Cc1cc(N[C@H](C)c2ccccc2)c2nc(-c3ccncc3)cc(=O)n2c1 | 20 µM | 1 µM |  |  |
| CC(Nc1ccccc1N)c1cccc2c(=O)cc(-c3ccncc3)oc12 (stereo not drawn) | 15 µM | 0.5 µM |  | IC50 (PIK3CB (Human) [1]): 0.078 µM; IC50 (PIK3CB (Human) [2]): 20 µM; IC50 (PIK3CB (Human) [3]): 0.25 µM; IC50 (PIK3CB (Human) [4]): 0.2 µM |
| Cc1cc(C(C)Nc2ccc(Cl)c(Cl)c2)c2nc(N3CCOCC3)cc(=O)n2c1 (stereo not drawn) |  |  | > 5 µM |  |
| O=c1cc(-c2ccncc2)oc2c(NCc3ccccc3)cccc12 |  | 0.2 µM |  |  |
| Cc1cc(C(C)Nc2ccccn2)c2nc(N3CCOCC3)cc(=O)n2c1 (stereo not drawn) |  |  | > 5 µM |  |
| Cc1cc(C(C)Oc2ccccc2)c2oc(-c3ccncc3)cc(=O)c2c1 (stereo not drawn) | 20 µM |  |  |  |
| Cc1cc(-c2ccccc2)c2nc(-c3ccncc3)cc(=O)n2c1 | > 10 µM | > 10 µM |  |  |
| Cc1cc(C(C)Nc2cccc(C(F)(F)F)c2)c2nc(N3CCOCC3)cc(=O)n2c1 (stereo not drawn) |  |  | > 5 µM |  |
| Cc1cccc(NC(C)c2cc(C)cn3c(=O)cc(N4CCOCC4)nc23)c1 (stereo not drawn) |  |  | > 5 µM |  |
| Cc1cc(C(C)Nc2ccc(Cl)cc2)c2nc(N3CCOCC3)cc(=O)n2c1 (stereo not drawn) |  |  | > 5 µM |  |
| CC(=O)Nc1ccccc1NCc1cc(C)cc2c(=O)cc(-c3ccncc3)oc12 | 5 µM | 1 µM |  |  |
| Cc1cc(C(C)Nc2ccccc2)c2oc(-c3ccncc3)cc(=O)c2c1 (stereo not drawn) |  |  |  | IC50 (PIK3CB (Human) [1]): 0.005 µM; IC50 (PIK3CB (Human) [2]): 5 µM; IC50 (PIK3CB (Human) [3]): 0.5 µM; IC50 (PIK3CB (Human) [4]): 0.1 µM |
| Cc1cc(C(C)Nc2cc(F)cc(F)c2)c2nc(N3CCOCC3)cc(=O)n2c1 (stereo not drawn) |  |  | > 5 µM |  |
| Cc1cc(CNc2ccccc2)c2oc(-c3ccncc3)cc(=O)c2c1 | 10 µM | 10 µM |  |  |

From the Kinase Knowledgebase extract (Sharma et al. 2016)
